Patent publication US10759816B2, “Heterocyclic compounds as RSV inhibitors” (Enanta Pharmaceuticals, Inc., priority 2016, dated 2020)

What follows are compounds tested on genotype A, "Long" strain RSV (assay: RSV-A in vitro cytoprotection assay in HEp-2 cells (ATPlite readout of cell viability)). Settings: human respiratory syncytial virus, HEp-2, HEp-2 cells, genotype A “Long” strain RSV, cytoprotection; read-out: Human RSV-A (“Long” strain) EC50.
Format: cell-based, Human respiratory syncytial virus
Summary of the method: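 HEp-2 cells (8,000/well) given 2-fold compound dilutions in duplicate, then infected with RSV-A Long strain stock; viability read by ATPlite luminescence after 4 days. EC50 derived from cytoprotection; cytotoxicity measured on parallel uninfected plate.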
`O=C(NC1CC1)c1cc2c(s1)-c1ccccc1N(C(=O)c1cccc(N3CCOCC4(CCOCC4)C3)n1)CC2` [Example 284] was tested, and the EC50 was < 400 nM.
In the case of `Cc1cccc(F)c1NC(=O)c1cc2c(s1)-c1ccccc1N(C(=O)c1cccc(N3CCC4(COC4)C3)n1)CC2` [Example 427], the EC50 is reported as > 800 nM.
For `O=C(N[C@H]1CCOC1)c1cc2c(s1)-c1ccccc1N(C(=O)c1cccc(N3CCOc4ccccc4C3)n1)CC2` [Example 310], the EC50 was < 400 nM.
With `Cc1cccc(F)c1NC(=O)c1cc2c(s1)-c1ccccc1N(C(=O)c1cccc(N(C)Cc3ccccn3)n1)CC2` [Example 337] the EC50 was < 400 nM.
With `O=C(NC1CC1)c1cc2c(s1)-c1ccccc1N(C(=O)c1cccc(-c3cnn(C4COC4)c3)n1)CC2` [Example 158] the EC50 was > 800 nM.
In the case of `Cc1cccc(F)c1NC(=O)c1cc2c(s1)-c1ccccc1N(C(=O)c1cccc(N[C@H]3CCOC3)n1)CC2` [Example 457], the EC50 is reported as < 400 nM.
With `O=C(NC1CC1)c1cc2c(s1)-c1ccccc1N(C(=O)c1cccc(N3CCOC[C@H]3c3ccccc3)n1)CC2` [Example 277] the EC50 was > 800 nM.
In the case of `COc1ccc(-c2cccc(C(=O)N3CCc4cc(C(=O)NC5CC5)sc4-c4ccccc43)n2)cn1` [Example 65], the EC50 is reported as < 400 nM.
`COc1cccc(CN(C)c2cccc(C(=O)N3CCc4cc(C(=O)Nc5c(C)cccc5F)sc4-c4ccccc43)n2)c1` [Example 343] was tested, and the EC50 was < 400 nM.
With `Cc1cccc(F)c1NC(=O)c1cc2c(s1)-c1ccccc1N(C(=O)c1cccc(-c3ccc4ccc(=O)[nH]c4c3)n1)CC2` [Example 191] the EC50 was > 800 nM.
For `Cc1cccc(F)c1NC(=O)c1cc2c(s1)-c1ccccc1N(C(=O)c1cccc(N3CCC[C@@H]3C)n1)CC2` [Example 479], the EC50 was < 400 nM.
In the case of `Cc1cccc(F)c1NC(=O)c1cc2c(s1)-c1ccc(F)cc1N(C(=O)c1cccc(-c3cn[nH]c3C3CC3)n1)CC2` [Example 170], the EC50 is reported as < 400 nM.
With `O=C(N[C@H]1CCOC1)c1cc2c(s1)-c1ccccc1N(C(=O)c1cccc(-c3c[nH]nc3C3CC3)n1)CC2` [Example 177] the EC50 was < 400 nM.
In the case of `O=C(NC1CC1)c1cc2c(s1)-c1ccccc1N(C(=O)c1cccc(-c3cnc(N4CCOCC4)c(F)c3)n1)CC2` [Example 92], the EC50 is reported as 400 to 800 nM.
`Cc1cccc(F)c1NC(=O)c1cc2c(s1)-c1ccccc1N(C(=O)c1cccc(NC3CS(=O)(=O)C3)n1)CC2` [Example 440] was tested, and the EC50 was < 400 nM.
For `COCC(C)(C)CNc1cccc(C(=O)N2CCc3cc(C(=O)Nc4c(C)cccc4F)sc3-c3ccccc32)n1` [Example 421], the EC50 was < 400 nM.
For `COc1ccc(-c2cccc(C(=O)N3CCc4cc(C(=O)Nc5c(C)cccc5F)sc4-c4ccccc43)n2)cn1` [Example 264], the EC50 was > 800 nM.
With `Cc1cccc(F)c1NC(=O)c1cc2c(s1)-c1ccccc1N(C(=O)c1cccc(-c3cn(CCN(C)C)nc3C3CC3)n1)CC2` [Example 228] the EC50 was > 800 nM.
`COc1ccccc1[C@H](C)Nc1cccc(C(=O)N2CCc3cc(C(=O)NC4CC4)sc3-c3ccccc32)n1` [Example 292] was tested, and the EC50 was > 800 nM.
`O=C(NC1CC1)c1cc2c(s1)-c1ccccc1N(C(=O)c1ccnc(N3CCOCC3)c1)CC2` [Example 46] was tested, and the EC50 was > 800 nM.
For `COc1cccc2c1ccn2-c1cccc(C(=O)N2CCc3cc(C(=O)NC4CC4)sc3-c3ccccc32)n1` [Example 114], the EC50 was > 800 nM.
With `Cc1cccc(F)c1NC(=O)c1cc2c(s1)-c1ccc(F)cc1N(C(=O)c1cccc(N3CCOc4ccccc4C3)n1)CC2` [Example 488] the EC50 was < 400 nM.
`O=C(NC1CC1)c1cc2c(s1)-c1ccccc1N(C(=O)c1cccc(C3=CCOCC3)n1)CC2` [Example 59] gave an EC50 of 400 to 800 nM.
For `COC(C)(C)CNc1cccc(C(=O)N2CCc3cc(C(=O)Nc4c(C)cccc4F)sc3-c3ccccc32)n1` [Example 373], the EC50 was < 400 nM.
`COc1ccccc1[C@H](C)Nc1cccc(C(=O)N2CCc3cc(C(=O)Nc4c(C)cccc4F)sc3-c3ccccc32)n1` [Example 347] was tested, and the EC50 was > 800 nM.
In the case of `O=C(NC1CC1)c1cc2c(s1)-c1ccccc1N(C(=O)c1cccc(-c3cncn3C3CC3)n1)CC2` [Example 165], the EC50 is reported as < 400 nM.
With `Cc1cccc(F)c1NC(=O)c1cc2c(s1)-c1ccccc1N(C(=O)c1cccc(-c3c[nH]c4c(Cl)cccc34)n1)CC2` [Example 251] the EC50 was < 400 nM.
With `COc1ccn(-c2cccc(C(=O)N3CCc4cc(C(=O)Nc5c(C)cccc5F)sc4-c4ccccc43)n2)c(=O)c1` [Example 415] the EC50 was > 800 nM.
With `COCC(Nc1cccc(C(=O)N2CCc3cc(C(=O)Nc4c(C)cccc4F)sc3-c3ccccc32)n1)C1CC1` (centres unmarked) [Example 420] the EC50 was 400 to 800 nM.
In the case of `Cc1cccc(F)c1NC(=O)c1cc2c(s1)-c1ccccc1N(C(=O)c1cccc(NC(C)(C)c3ccccn3)n1)CC2` [Example 358], the EC50 is reported as < 400 nM.
With `CNC(=O)n1cc(-c2cccc(C(=O)N3CCc4cc(C(=O)Nc5c(C)cccc5F)sc4-c4ccccc43)n2)c(C2CC2)n1` [Example 217] the EC50 was < 400 nM.
`Cc1cccc(F)c1NC(=O)c1cc2c(s1)-c1ccccc1N(C(=O)c1cccc(-c3conc3C)n1)CC2` [Example 261] was tested, and the EC50 was < 400 nM.
`COc1ccc(-c2cccc(C(=O)N3CCc4cnc(NC(=O)C5CC5)nc4-c4ccccc43)n2)cn1` [Example 110] was tested, and the EC50 was > 800 nM.
With `Cc1cccc(F)c1NC(=O)c1cc2c(s1)-c1ccccc1N(C(=O)c1ccc(NC(=O)N3CCCOCC3)cc1)CC2` [Example 131] the EC50 was > 800 nM.
`Cc1cccc(F)c1NC(=O)c1cc2c(s1)-c1ccccc1N(C(=O)c1cccc(NCC3(CS(C)(=O)=O)CC3)n1)CC2` [Example 467] was tested, and the EC50 was 400 to 800 nM.
`Cc1cccc(F)c1NC(=O)c1cc2c(s1)-c1ccccc1N(C(=O)c1cccc(N3CCCC(C)(C)CC3)n1)CC2` [Example 375] was tested, and the EC50 was 400 to 800 nM.
`CN(C)c1ccc(-c2cccc(C(=O)N3CCc4cc(C(=O)NC5CC5)sc4-c4ccccc43)n2)cn1` [Example 82] was tested, and the EC50 was > 800 nM.
`O=C(NC1CC1)c1cc2c(s1)-c1ccccc1N(C(=O)c1cccc(-c3cn[nH]c3C3CC3)n1)CC2` [Example 164] was tested, and the EC50 was < 400 nM.
In the case of `O=C(NCc1ccccc1)c1cc2c(s1)-c1ccccc1N(C(=O)c1cccc(N3CCOc4ccccc4C3)n1)CC2` [Example 305], the EC50 is reported as 400 to 800 nM.
In the case of `Cc1cccc(F)c1NC(=O)c1cc2c(s1)-c1ccccc1N(C(=O)c1cccc(NC3CS(=O)(=O)c4ccccc43)n1)CC2` (centres unmarked) [Example 476], the EC50 is reported as < 400 nM.
With `Cc1ccncc1-c1cccc(C(=O)N2CCc3cc(C(=O)NC4CC4)sc3-c3ccccc32)n1` [Example 156] the EC50 was > 800 nM.
For `Cc1cccc(F)c1NC(=O)c1cc2c(s1)-c1ccccc1N(C(=O)c1cccc(N3CCCN(S(=O)(=O)C4(C)CC4)CC3)n1)CC2` [Example 383], the EC50 was < 400 nM.
`Cc1cccc(F)c1NC(=O)c1cc2c(s1)-c1ccccc1N(C(=O)c1cccc(N(C)CC3Cc4ccccc4O3)n1)CC2` (centres unmarked) [Example 117] was tested, and the EC50 was < 400 nM.
For `CS(=O)(=O)N1CC(NC(=O)c2cc3c(s2)-c2ccccc2N(C(=O)c2cccc(-c4c[nH]nc4C4CC4)n2)CC3)C1` [Example 184], the EC50 was > 800 nM.
For `COCCN(C)c1cccc(C(=O)N2CCc3cc(C(=O)NC4CC4)sc3-c3ccccc32)n1` [Example 34], the EC50 was 400 to 800 nM.
For `Cc1cccc(F)c1NC(=O)c1cc2c(s1)-c1ccccc1N(C(=O)c1cccc(N3C[C@H](O)C[C@@H]3C)n1)CC2` [Example 480], the EC50 was < 400 nM.
With `Cc1cccc(F)c1NC(=O)c1cc2c(s1)-c1ccccc1N(C(=O)c1ccc(NS(=O)(=O)c3cccnc3N3CC4(CCOCC4)C3)cc1)CC2` [Example 132] the EC50 was > 800 nM.
`O=C(NC1CC1)c1cc2c(s1)-c1ccccc1N(S(=O)(=O)c1cccc(-c3ccnc(N4CCOCC4)c3)n1)CC2` [Example 103] was tested, and the EC50 was > 800 nM.
For `Cc1cccc(F)c1NC(=O)c1cc2c(s1)-c1ccccc1N(C(=O)c1cccc(-c3cn(CS(C)(=O)=O)nc3C3CC3)n1)CC2` [Example 231], the EC50 was > 800 nM.
For `O=C(NC1CC1)c1cc2c(s1)-c1ccccc1N(C(=O)c1cccc(N3CCCOCC3)n1)CC2` [Example 17], the EC50 was < 400 nM.
With `Cc1cccc(F)c1NC(=O)c1cc2c(s1)-c1ccc(F)cc1N(C(=O)c1cccc(-c3c[nH]c4ncc(F)cc34)n1)CC2` [Example 169] the EC50 was < 400 nM.
In the case of `Cn1ccc(-c2cccc(C(=O)N3CCc4cc(C(=O)NC5CC5)sc4-c4ccccc43)n2)cc1=O` [Example 162], the EC50 is reported as > 800 nM.
`O=C(NC1CC1)c1cc2c(s1)-c1ccccc1N(C(=O)c1cccc(N3CCOc4cc(Br)ccc4C3)n1)CC2` [Example 281] was tested, and the EC50 was < 400 nM.
For `CN1CC(NC(=O)c2cc3c(s2)-c2ccccc2N(C(=O)c2cccc(-c4c[nH]nc4C4CC4)n2)CC3)C1` [Example 183], the EC50 was > 800 nM.
`O=C1CN(c2cccc(C(=O)N3CCc4cc(C(=O)NC5CC5)sc4-c4ccccc43)n2)CCN1` [Example 22] showed an EC50 of 400 to 800 nM.
In the case of `Cc1cccc(F)c1NC(=O)c1cc2c(s1)-c1ccccc1N(C(=O)c1cccc(N3CCCNCC3)n1)CC2` [Example 381], the EC50 is reported as > 800 nM.
With `Cc1cccc(F)c1NC(=O)c1cc2c(s1)-c1ccccc1N(C(=O)c1cccc(N3C[C@H]4COC[C@H]4C3)n1)CC2` [Example 376] the EC50 was > 800 nM.
With `CNC(=O)c1ccc(-c2cccc(C(=O)N3CCc4cc(C(=O)NC5CC5)sc4-c4ccccc43)n2)cn1` [Example 83] the EC50 was 400 to 800 nM.
For `Cc1cccc(F)c1NC(=O)c1cc2c(s1)-c1ccccc1N(C(=O)c1cccc(N3CCCN(S(=O)(=O)C4CCCCC4)CC3)n1)CC2` [Example 385], the EC50 was < 400 nM.
For `O=C(NC1CC1)c1cc2c(s1)-c1ccccc1N(C(=O)c1cccc(-c3nncn3CC3CCOCC3)n1)CC2` [Example 127], the EC50 was > 800 nM.
With `O=C(NC1CC1)c1cc2c(s1)-c1ccccc1N(C(=O)c1cccc(N3CCOc4ccccc43)n1)CC2` [Example 319] the EC50 was > 800 nM.
For `Cc1cccc(F)c1NC(=O)c1cc2c(s1)-c1ccccc1N(C(=O)c1cccc(N3CCC[C@@H]3C#N)n1)CC2` [Example 474], the EC50 was < 400 nM.
For `CN1CCC(NC(=O)c2cc3c(s2)-c2ccccc2N(C(=O)c2cccc(N4CCOc5ccccc5C4)n2)CC3)CC1` [Example 308], the EC50 was < 400 nM.
In the case of `COc1ccc(CN(C)c2cccc(C(=O)N3CCc4cc(C(=O)Nc5c(C)cccc5F)sc4-c4ccccc43)n2)cc1` [Example 344], the EC50 is reported as < 400 nM.
For `Cc1cccc(F)c1NC(=O)c1cc2c(s1)-c1ccccc1N(C(=O)c1cccc(N3CCS(=O)(=O)c4ccc(F)cc4C3)n1)CC2` [Example 436], the EC50 was < 400 nM.
